Measured values as given in paper PMC12722920, “Pharmacokinetics and pharmacodynamics of cannabigerol (CBG) in the C57BL/6Crl mouse” (Frontiers in Pharmacology, 2025).
Like-named read-outs stand apart in the source and are kept apart here.

Tests used:
C57BL/6Crl mice [1] = system: C57BL/6Crl mice; set-up: method as in Zagzoog et al., 2024; settings: THC, ref Zagzoog et al., 2024, cited from earlier work
[2] = ref Zagzoog et al., 2024, cited from earlier work
C57BL/6Crl mice [3] = system: C57BL/6Crl mice; set-up: method as in Zagzoog et al., 2024; settings: THC, ref Zagzoog et al., 2024, cited from earlier work; remark: listed apart in the source
C57BL/6Crl mice [4] = system: C57BL/6Crl mice; set-up: method as in Zagzoog et al., 2024; settings: THC, ref Zagzoog et al., 2024, cited from earlier work; remark: listed apart in the source
[5] = THC 10 mg/kg i.v.; ref Zagzoog et al., 2024; cited from earlier work
C57BL/6Crl mice [6] = assay: Open field test (OFT): locomotion and anxiety-like behaviour; format: in vivo; settings: for OFT time in the center: compared to the vehicle
Protocol: Catalepsy was assessed in the ring holding assay; mice were positioned with their forepaws grasping onto a 0.5 cm thick ring clamp elevated 5 cm above the testing surface. The duration of time while the ring was held was recorded in seconds, with each trial terminated if the mouse’s forepaw released from the bar, upon turning of the head or body, or after 60 s of immobility. Catalepsy was evaluated three times consecutively, and the average time spent holding the bar was reported as a percent of the maximum possible effect (% MPE, up to 60 s). Internal body temperature was measured via a rectal thermometer. Nociception was determined by assessing tail-flick latency, where mice were restrained with their tails placed ∼1 cm into 52 °C ± 2 °C water. The time (sec) until the tail was removed was measured, with observations ending at 20 s and represented as a % MPE. Locomotion and anxiety-like behaviour were assessed in the OFT. Mice were placed in an open space (90 cm × 90 cm) and recorded for 5 min. Total distance travelled (cm), velocity (cm/sec), time in the centre quadrant (sec), and central quadrant entries were measured with EthoVision XT (Noldus Information Technology Inc., Leesburg, VA).
In Phase I (Part B), after determining the timepoint at which blood CBG concentrations were highest for each respective route of administration, the timing for each measure in the tetrad was adjusted. An assessment was conducted in a new cohort consisting of both male and female mice (n = 4 per sex per route) receiving a dose of 10 mg/kg of CBG via i.v., i.p., or p.o. routes. For those administered with i.v. CBG, the timing was: catalepsy at 5 min, body temperature at 15 min, tail-flick latency at 20 min, and OFT at 25 min post-injection. For i.p. CBG, measurements were taken at 20 min for catalepsy, 25 min for body temperature, 30 min for tail-flick latency, and 35 min for OFT post-injection. For p.o. CBG, data collection was scheduled as follows: catalepsy at 170 min, body temperature at 175 min, tail-flick latency at 180 min, and OFT at 185 min post-injection.

Structure (SMILES): CCCCCc1cc(O)c2c(c1)OC(C)(C)[C@@H]1CCC(C)=C[C@@H]21 [THC, Δ^9-Tetrahydrocannabinol]
- ED50 tail-flick latency (C57BL/6Crl mice [1]; both sexes): 4.1 mg/kg
- ED50 tail-flick latency (C57BL/6Crl mice [1]; females): 3.6 mg/kg
- ED50 tail-flick latency (C57BL/6Crl mice [1]; males): 4.9 mg/kg
- Cmax ([2]; 10 mg/kg THC i.p.): 377 ng/mL
- C at 10 min (blood concentration 10 min post-administration) ([2]; THC i.v., males): 1,290 ng/mL
- Cmax ([2]; THC p.o.): 149.5 ng/mL
- p.o. Cmax as percent of i.p. Cmax ([2]; THC): 40%
- ED50 catalepsy (C57BL/6Crl mice [3]; both sexes): 6.9 mg/kg
- ED50 catalepsy (C57BL/6Crl mice [3]; females): 6.0 mg/kg
- ED50 catalepsy (C57BL/6Crl mice [3]; males): 8.6 mg/kg
- ED50 body temperature (C57BL/6Crl mice [4]; both sexes): 7.8 mg/kg
- ED50 body temperature (C57BL/6Crl mice [4]; females): 7.3 mg/kg
- ED50 body temperature (C57BL/6Crl mice [4]; males): 8.3 mg/kg
- mean blood concentration [5]: 526 ng/mL
- OFT entries to the center (C57BL/6Crl mice [6]; 10 mg/kg i.p., compared to vehicle): entered the center fewer times than their vehicle-treated counterparts
- OFT velocity (C57BL/6Crl mice [6]; 10 mg/kg i.v., 25 min post-administration, male and female mice): reduced velocity compared to vehicle treatment
- OFT time in the center (C57BL/6Crl mice [6]; 10 mg/kg i.v.): Time in the center was reduced
- OFT entries to the center (C57BL/6Crl mice [6]; 10 mg/kg i.v., compared to vehicle): entered the center fewer times than their vehicle-treated counterparts
- OFT entries to the center (C57BL/6Crl mice [6]; 10 mg/kg p.o.): entered the center of the OFT fewer times than vehicle oral gavage mice
- OFT time in the center (C57BL/6Crl mice [6]; 10 mg/kg p.o.): Time in the center was reduced
